Laboratory results reported in patent US20130197071A1, “PRODUCTION OF LIPOXYGENASE INHIBITORS VIA FUNGAL BIOSYNTHETIC PATHWAY” (UNIVERSITY OF SOUTHERN CALIFORNIA, priority 2012, published 2013).
Entries after “also recorded” stand apart in the source; their conditions may differ. Read-outs that look alike come from different tables or passages of the source.

Columns and labels:
[1] = Solubility of compound 5 in aqueous culture media; type: physicochemical; details: liquid lactose minimal medium culture
Description: The fungal strain used to over-produce compound 5 contains genetic alterations as described in Table 1. The native promoter of afoA, the gene that codes for the pathway-specific transcription activator of the asperfuranone pathway was replaced with the inducible alcohol dehydrogenase promoter, alcA. The afoD gene, that codes for the hydroxylase in the asperfuranone pathway, was deleted to enable the accumulation of intermediate, compound 5.^11 It should be noted that the afo cluster is silent under normal laboratory growing conditions. The wild type strain, thus, produced non-detectable compound 5 and asperfuranone (4).

[2] = target: T1, soybean LOX-1 (Lipoxygenase-1, 15-Lipoxygenase) (Glycine max, UniProt P08170); test: Soybean lipoxygenase-1 (LOX-1) inhibition assay, spectrophotometric at 234 nm, linoleic acid substrate; type: biochemical; details: for LOX-1 inhibition (result in words): screening for soybean LOX-1 inhibition
T1 construct: purchased Cayman Chemical #60712
T1 sequence (P08170 1-839): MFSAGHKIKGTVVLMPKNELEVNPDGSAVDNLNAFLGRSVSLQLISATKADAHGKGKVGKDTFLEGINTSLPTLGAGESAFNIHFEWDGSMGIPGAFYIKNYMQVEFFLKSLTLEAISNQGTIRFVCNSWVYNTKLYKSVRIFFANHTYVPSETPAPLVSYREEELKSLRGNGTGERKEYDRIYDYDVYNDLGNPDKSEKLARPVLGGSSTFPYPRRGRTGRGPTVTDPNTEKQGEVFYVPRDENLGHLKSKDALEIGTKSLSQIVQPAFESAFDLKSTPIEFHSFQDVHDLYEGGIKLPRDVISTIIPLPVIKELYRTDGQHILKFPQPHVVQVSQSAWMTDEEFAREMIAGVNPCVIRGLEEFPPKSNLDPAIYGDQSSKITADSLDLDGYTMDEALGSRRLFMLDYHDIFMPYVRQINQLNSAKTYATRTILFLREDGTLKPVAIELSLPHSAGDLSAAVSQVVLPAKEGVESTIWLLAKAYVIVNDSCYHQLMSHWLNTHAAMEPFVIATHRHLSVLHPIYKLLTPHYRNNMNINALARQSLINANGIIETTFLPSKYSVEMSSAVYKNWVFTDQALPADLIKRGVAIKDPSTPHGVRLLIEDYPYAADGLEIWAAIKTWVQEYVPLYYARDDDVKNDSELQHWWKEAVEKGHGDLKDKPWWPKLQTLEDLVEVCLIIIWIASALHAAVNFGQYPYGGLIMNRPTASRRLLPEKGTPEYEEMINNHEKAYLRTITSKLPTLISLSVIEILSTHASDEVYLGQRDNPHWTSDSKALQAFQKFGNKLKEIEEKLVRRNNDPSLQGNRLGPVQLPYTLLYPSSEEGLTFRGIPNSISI
Description: ^1H and ^13C NMR spectra were recorded on a Varian Mercury Plus 400 spectrometer. Chemical shifts are reported in ppm relative to CDCl3 (^1H, δ 7.26; ^13C, δ 77.0) or acetone-d6 (^1H, δ 2.05; ^13C, δ 30.0, 206.0). ^1H NMR data is reported as: chemical shift, multiplicity (s=singlet, d=doublet, t=triplet, q=quartet, m=multiplet), coupling constant, and integration. Infrared spectra were recorded on a JASCO FTIR-4100. Infrared frequencies are reported in reciprocal centimeters. High resolution electrospray ionization mass was obtained on an Agilent 6210 time of flight LC-MS. Reactions were monitored by analytical thin-layer chromatography on EMD silica gel-60^F254 plates. Flash chromatography was performed on EMD silica gel 60, 70-230 mesh. All reagents were used without further purification unless otherwise noted. Reagents were purchased from Sigma-Aldrich, and Alfa Aesar. Diethyl ether (anhydrous) and 1,2-dichloroethane (anhydrous) were used directly from the bottle. Water sensitive reactions were performed under a nitrogen atmosphere with oven-dried glassware. Kinetic experiments for lipoxygenase inhibition were recorded on a Shimadzu UV-2401PC at 26° C. Materials for the lipoxygenase assay such as linoleic acid, 15-Lipoxygenase (soybean PO, and (+)-sclerotiorin were purchased from Cayman Chemicals.
The enzyme assay was performed according to Axelrod et. al.^18 Each solution was prepared and measured at room temperature. Enzyme kinetics was measured on a Shimadzu UV-2401PC at a wavelength of 234 nm in a quartz cuvette (FIG. 6). For the assay, the linoleic acid substrate was prepared by mixing 20 μL linoleic acid (Cayman Chemical #760716) with 20 μL KOH (Cayman Chemical #760713) and 40 μL double distilled water. Lipoxygenase-1 (Cayman Chemical #60712) was diluted from original stock concentration to a concentration of 100 U/mL in the cuvette. The semisynthetic azaphilones were prepared as stock concentrations in dimethylsulfoxide (DMSO) from 20 μM to 10 mM; 54, was added to the assay mixture to give the desired final concentration of the inhibitor with 1% of DMSO in the assay.
The spectrophotometric assay is based on monitoring the reaction, catalyzed by LOX-1 to convert linoleic acid (L) to the hydroperoxide (LOOH), at 234 nm. […] The reaction is initiated when the non-heme iron of LOX-1 in the ferric state is reduced by the substrate L. While in the enzyme-substrate complex, L is oxidized and converted to the peroxide free radical (LOO.), and subsequently released from the enzyme as LOOH Inhibitors can interfere in the process in several different ways to prevent the generation of LOOH by the chelation of iron, removal of oxygen or prevention of free radical formation.
Prior to measurements, a sample with buffer was used as a blank. In a quartz cuvette, each sample was prepared with 482.54, 0.2 M borate buffer (at a pH of 9.0) mixed with 54, inhibitor and 54, substrate by pipetting the solution. The cuvette was placed in the spectrophotometer and measured for 120 seconds and then rapidly 7.54, lipoxygenase-1 was added and mixed to initiate the reaction. Measurements were recorded every 30 seconds for 7.5 minutes.
Inhibition of an enzyme at 50% can be experimentally measured by monitoring enzyme kinetics. A kinetic study generates a curve where the slope provides the initial velocity (Vo) of the enzyme. For each sample with different inhibitor concentrations the initial velocity was derived from a linear segment between […]. The absorbance was used directly and not converted into concentration units. […] The concentration of inhibitor at which 50% inhibition occurred (as measured by change in Vo) was reported as the IC50.

[3] = target: T1, soybean LOX-1 (Lipoxygenase-1, 15-Lipoxygenase); details: literature report (ref. 5); cited from earlier work
[4] = soybean LOX-1, linoleic acid, 0.2 M borate buffer pH 9.0, 1% DMSO, 234 nm, read-out: Lipoxygenase-1 Inhibitory Activity IC50 (μM) ± s.d.

Molecule	IC50 [2, 4] [µM]	also measured
CC[C@H](C)/C=C(C)/C=C/C1=CC2=C(Cl)C(=O)[C@](C)(OC(C)=O)C(=O)C2=CO1 [Compound 1, (+)-sclerotiorin, reference compound]	7.8 ± 2.4	LOX-1 inhibition of (+)-sclerotiorin according to a report [3]: potent LOX-1 inhibition
CC[C@H](C)/C=C(C)/C=C/C1=CC2=CC(=O)C(C)(OC(C)=O)C(=O)C2=CO1 (stereo partly drawn) [Compound 7]	4.9 ± 3.3	LOX-1 inhibition (result in words) [2]: highest lipoxgyenase-1 inhibition; also recorded: most effective
CC[C@H](C)/C=C(C)/C=C/C1=CC2=C(Cl)C(=O)C(C)(OC(C)=O)C(=O)C2=CO1 (stereo partly drawn) [Compound 8]	2.3 ± 0.9	
CC[C@H](C)/C=C(C)/C=C/C1=CC2=C(I)C(=O)C(C)(OC(C)=O)C(=O)C2=CO1 (stereo partly drawn) [Compound 10]	17.4 ± 8.1	
CC[C@H](C)/C=C(C)/C=C/C1=CC2=C(Cl)C(=O)C(C)(O)C(=O)C2=CO1 (stereo partly drawn) [Compound 12]		IC50 [2]: 7.9 ± 3.9 µM
CCOC(=O)C=C1C2=COC(/C=C/C(C)=C/[C@@H](C)CC)=CC2=C(Br)C(=O)C1(C)O (stereo partly drawn) [Compound 16]	> 100	
asperfuranone [Compound 4]	> 100	

Further lines, with some results ahead:

IC50 [2, 4] [µM]	Molecule	also measured
97.2 ± 2	CC[C@H](C)/C=C(C)/C=C/C(=O)Cc1cc(O)c(C)c(O)c1C=O (stereo in doubt) [Compound 5, 2,4-dihydroxy-6-(5,7-dimethyl-2-oxo-trans-3-trans-5-nonadienyl)-3-methylbenzaldehyde]	Solubility in aqueous media (in words) [1]: poorly dissolved in aqueous media
6.8 ± 4.5	CC[C@H](C)/C=C(C)/C=C/C1=CC2=C(Br)C(=O)C(C)(OC(C)=O)C(=O)C2=CO1 (stereo partly drawn) [Compound 9]	
10.7 ± 6.6	CC[C@H](C)/C=C(C)/C=C/C1=CC2=CC(=O)C(C)(O)C(=O)C2=CO1 (stereo partly drawn) [Compound 11]	
3.2 ± 1.5	CC[C@H](C)/C=C(C)/C=C/C1=CC2=C(Br)C(=O)C(C)(O)C(=O)C2=CO1 (stereo partly drawn) [Compound 13]	LOX-1 inhibition (result in words) [2]: highest lipoxgyenase-1 inhibition; also recorded: most effective
19.6 ± 11.9	CC[C@H](C)/C=C(C)/C=C/C1=CC2=C(I)C(=O)C(C)(O)C(=O)C2=CO1 (stereo partly drawn) [Compound 14]	
> 100	CCOC(=O)C=C1C2=COC(/C=C/C(C)=C/[C@@H](C)CC)=CC2=CC(=O)C1(C)O (stereo partly drawn) [Compound 15]	
> 100	CCOC(=O)C=C1C2=COC(/C=C/C(C)=C/[C@@H](C)CC)=CC2=C(I)C(=O)C1(C)O (stereo partly drawn) [Compound 17]	
